Here are results for 15 compounds from patent US20220380341A1, “INHIBITORS OF HIV-1 NEF FOR THE TREATMENT OF HIV DISEASE” (priority 2018, published 2022).

As a reminder, the inhibition is the change of the read-out against control, counted positive when it falls.

In data set [1] the test system is HIV-1NL4-3. The data set is described as follows: HIV-1 infectivity assay in TZM-bl reporter cell line (LTR-luciferase, 48 h). Particulars: for inhibition at 1 µM: Human immunodeficiency virus 1, TZM-bl. The class given is cell-based. An outline of the steps:
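Luciferase read-out 48 h post-infection; compound at 1 μM during HIV-1NL4-3 infection of TZM-bl cells. Percent inhibition scaled to DMSO wild-type virus (0%) and DMSO Nef-defective virus (100% of Nef-dependent effect). Viability checked separately in uninfected cells by Cell Titer Blue.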

The subject of data set [2] is TZM-bl cell line. It counts as cell-based. An outline of the steps: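 Nef-dependent infectivity in TZM-bl cells: HIV-1NL4-3 infection with 1 μM compound, luciferase read at 48 h, normalized against DMSO wild-type and Nef-defective controls. Compound cytotoxicity in uninfected cells measured by Cell Titer Blue.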
Data set [3] addresses HIV-1 NefNL4-3 (Human immunodeficiency virus type 1 group M subtype B, UniProt P03406, A33V/T15A/T51N/V11I). The data set is described as follows: Surface plasmon resonance binding to recombinant full-length Nef (NL4-3). Particulars: for T, minutes (residence time): 2-step induced fit, T = 1/koff2; for RU30/RUNef (extent of binding): response units at 30 μM relative to Nef immobilized on the SPR chip. (In general: In SPR one partner is held on a chip, and binding of the other changes the refractive index at the surface.)

Setting [4] is: 48 h, Table 1, TZM-bl cells, 1 μM, 48 h, 100% = Nef-defective HIV-1, read-out: HIV-1 Infectivity % Inhibition Norm. to Δ-Nef @ 1 μM.
[5] abbreviates: Table 1, 1:1 Langmuir fit where the KD2 cell says '1 to 1 fitting', else 2-site fit.
Where [6] appears, read: 1.0 μM, TZM-bl reporter cell line, Table 4, read-out: % Infectivity Inhibition.
The mark [7] stands for this setting: KD, M, Table 4, SPR fit 2-step induced fit, KD = koff/kon × koff2/(koff2 + kon2).
Setting [8] is: Nef NL4-3 Binding, SPR 2-state fitting KD, Table 1, 2-step induced-fit model.
[9] abbreviates: read-out: Nef NL4-3 Binding, SPR 1:1 or 2-site fitting KD2, Table 1, 2-site fit, second component.

pKd: −log10 of the molar value. Like-named read-outs stand apart in the source and are kept apart here.

Regarding `O=C1NC(=O)C(CC(=O)N2CCC(c3nn(-c4nc5ccccc5[nH]4)c(O)c3CCc3ccc(F)cc3)CC2)N1` (centres unmarked) [Compound I-738, 5-(2-{4-[1-(1H-1,3-benzodiazol-2-yl)-4-[2-(4-fluorophenyl)ethyl]-5-hydroxy-1H-pyrazol-3-yl]piperidin-1-yl}-2-oxoethyl)imidazolidine-2,4-dione], the inhibition at 1 µM in data set [1] (setting [4]) is -9.9%. Moreover, the “Percent Viability @ 1 μM (TZM-bl cells)” value in data set [2] (human, 1 μM) is reported as 100.4%. For the same compound, in data set [3] (setting [5]), the “Nef NL4-3 Binding, SPR 1:1 or 2-site fitting KD1” value (shortened to “Nef NL4-3 Binding”) was “No Interaction”.
For the compound `CN(C)C(=O)N1CCC(c2nn(-c3nc4ccccc4[nH]3)c(O)c2CCC2CCOCC2)CC1` [Compound I-739, 4-[1-(1H-1,3-benzodiazol-2-yl)-5-hydroxy-4-[2-(oxan-4-yl)ethyl]-1H-pyrazol-3-yl]-N,N-dimethylpiperidine-1-carboxamide], the inhibition at 1 µM in data set [1] (setting [4]) was -7%. Besides, the “Percent Viability @ 1 μM (TZM-bl cells)” value in data set [2] (human, 1 μM) is 100.0%. For the same compound, the “Nef NL4-3 Binding” value in data set [3] (setting [5]) is given as “No Interaction”.
As for `COC(=O)N1CCC(c2nn(-c3nc4ccccc4[nH]3)c(O)c2CCc2ccc(F)cc2)CC1` [Compound I-740, methyl 4-[1-(1H-1,3-benzodiazol-2-yl)-4-[2-(4-fluorophenyl)ethyl]-5-hydroxy-1H-pyrazol-3-yl]piperidine-1-carboxylate], the inhibition at 1 µM in data set [1] (setting [6]) and in data set [1] (setting [4]) was 39.1% throughout. In addition, the “% Cell Viability” value in data set [2] (human, 1 μM) is 89.8%. Moreover, in data set [2] (human, 1 μM), the “Percent Viability @ 1 μM (TZM-bl cells)” value is reported as 89.8%. Also, the pKd in data set [3] is 6.80; in data set [3] (setting [7]), 6.26; in data set [3] (setting [8]) it was 6.26; in data set [3] (setting [9]) it was 5.47. Moreover, in data set [3] (Table 4), the “T, minutes (residence time)” value was found to be 1.26E + 01 minutes. Besides, the “RU30/RUNef (extent of binding)” value in data set [3] came to 7.81E- 03.
Turning to `O=S(=O)(c1cccnc1)N1CCC(c2nn(-c3nc4ccccc4[nH]3)c(O)c2CCc2ccc(F)cc2)CC1` [Compound I-742, 1-(1H-1,3-benzodiazol-2-yl)-4-[2-(4-fluorophenyl)ethyl]-3-[1-(pyridine-3-sulfonyl)piperidin-4-yl]-1H-pyrazol-5-ol], the values for the inhibition at 1 µM in data set [1] (setting [6]) and in data set [1] (setting [4]) were 100% and 125%, respectively. In addition, the “% Cell Viability” value in data set [2] (human, 1 μM) was determined as 77.3%. The “Percent Viability @ 1 μM (TZM-bl cells)” value in data set [2] (human, 1 μM) came out at 77.3%. The figures for the pKd in data set [3] (setting [7]), in data set [3] (setting [8]) and in data set [3] (setting [9]) were 11.84, 11.84 and 4.25, respectively. The “RU30/RUNef (extent of binding)” value in data set [3] is given as 2.76E- 03.
Regarding `CC(=O)N1CCC(c2nn(-c3nc4ccccc4[nH]3)c(O)c2Cc2ccc(F)c(F)c2)CC1` [Compound I-744, 1-{4-[1-(1H-1,3-benzodiazol-2-yl)-4-[(3,4-difluorophenyl)methyl]-5-hydroxy-1H-pyrazol-3-yl]piperidin-1-yl}ethan-1-one], the inhibition at 1 µM in data set [1] (setting [6]) and in data set [1] (setting [4]) was 51.2% in each case. In data set [2] (human, 1 μM), the “% Cell Viability” value turned out to be 98.2%. Moreover, in data set [2] (human, 1 μM), the “Percent Viability @ 1 μM (TZM-bl cells)” value was 98.2%. Besides, the pKd in data set [3] was 7.63; in data set [3] (setting [7]), 5.71; in data set [3] (setting [8]) it was 5.71; in data set [3] (setting [9]) it was 5.14. In addition, the “T, minutes (residence time)” value in data set [3] (Table 4) came out at 5.61E + 00 minutes. The “RU30/RUNef (extent of binding)” value in data set [3] came out at 4.92E- 03.
For the compound `CC(C)(O)C(=O)N1CCC(c2nn(-c3nc4ccccc4[nH]3)c(O)c2CCc2ccc(F)cc2)CC1` [Compound I-745, 1-{4-[1-(1H-1,3-benzodiazol-2-yl)-4-[2-(4-fluorophenyl)ethyl]-5-hydroxy-1H-pyrazol-3-yl]piperidin-1-yl}-2-hydroxy-2-methylpropan-1-one], the inhibition at 1 µM in data set [1] (setting [4]) stood at 23.8%. In addition, in data set [2] (human, 1 μM), the “Percent Viability @ 1 μM (TZM-bl cells)” value was 100.0%. In addition, the pKd in data set [3] was 5.00.
For the compound `O=S(=O)(C1CCCCC1)N1CCC(c2nn(-c3nc4ccccc4[nH]3)c(O)c2CCc2ccc(F)cc2)CC1` [Compound I-747, 1-(1H-1,3-benzodiazo1-2-y1)-3-[1-(cyclohexanesulfonyl)piperidin-4-yl]-4-[2-(4-fluorophenyl)ethyl]-1H-pyrazol-5-ol], the “HIV Infectivity % Control @ 1 μM” value in data set [1] (1 μM, TZM-bl reporter cells, % of control) turned out to be 30.9%. The “HIV-1 Infectivity % Inhibition Norm. to Δ-Nef @ 1 μM” value came out at 179.3% in data set [1] (1 μM, TZM-bl, normalized: DMSO wild-type HIV-1 = 0%, Nef-defective HIV-1 = 100%) and 179.3% in data set [1] (Table 1, TZM-bl cells, 1 μM, 48 h, 100% = Nef-defective HIV-1). In addition, in data set [2], the “Percent Viability @ 1 μM (TZM-bl cells)” value stood at 86.9%. The Kd in data set [3] (KD, two-step induced-fit model, Reichert SPR, Table 3, read-out: Reichert SPR Nef NL43 (M) two-step fitting) came to 0.000257 M. Besides, the pKd in data set [3] (Table 1, 1:1 Langmuir fit where the KD2 cell says '1 to 1 fitting', else 2-site fit, read-out: Nef NL4-3 Binding, SPR 1:1 or 2-site fitting KD1) was 7.05; in data set [3] (Table 1, 2-site fit, second component, read-out: Nef NL4-3 Binding, SPR 1:1 or 2-site fitting KD2) it was 5.81; in data set [3] (Table 1, 2-step induced-fit model, read-out: Nef NL4-3 Binding, SPR 2-state fitting KD) it was 3.59.
For `O=S(=O)(C1CC1)N1CCC(c2nn(-c3nc4ccccc4[nH]3)c(O)c2CCc2ccc(F)cc2)CC1` [Compound I-748, 1-(1H-1,3-benzodiazol-2-yl)-3-[1-(cyclopropanesulfonyl)piperidin-4-yl]-4-[2-(4-fluorophenyl)ethyl]-1H-pyrazol-5-ol], the inhibition at 1 µM in data set [1] (setting [4]) was determined as 22.3%. For the same compound, the “Percent Viability @ 1 μM (TZM-bl cells)” value in data set [2] (human, 1 μM) was 94.8%. In addition, the pKd in data set [3] was 5.38.
Consider `Nc1ccc(S(=O)(=O)N2CCC(c3nn(-c4nc5ccccc5[nH]4)c(O)c3CCc3ccc(F)cc3)CC2)cc1` [Compound I-749, 3-[1-(4-aminobenzenesulfonyl)piperidin-4-yl]-1-(1H-1,3-benzodiazol-2-yl)-4-[2-(4-fluorophenyl)ethyl]-1H-pyrazol-5-ol], for which the inhibition at 1 µM in data set [1] (setting [4]) stood at 64.1%. In addition, the “Percent Viability @ 1 μM (TZM-bl cells)” value in data set [2] (human, 1 μM) is 78.7%. Further, the pKd was 8.90 in data set [3], 6.40 in data set [3] (setting [8]) and 6.12 in data set [3] (setting [9]).
`CC(C)CS(=O)(=O)N1CCC(c2nn(-c3nc4ccccc4[nH]3)c(O)c2CCc2ccc(F)cc2)CC1` [Compound I-750, 1-(1H-1,3-benzodiazol-2-yl)-4-[2-(4-fluorophenyl)ethyl]-3-[1-(2-methylpropanesulfonyl)piperidin-4-yl]-1H-pyrazol-5-ol]: the inhibition at 1 µM in data set [1] (setting [4]) worked out at 63.7%. Moreover, the “Percent Viability @ 1 μM (TZM-bl cells)” value in data set [2] (human, 1 μM) was determined as 93.0%. The pKd in data set [3] is 9.86; in data set [3] (setting [8]) it was 5.94; in data set [3] (setting [9]) it was 9.24.
With `CC(C)S(=O)(=O)N1CCC(c2nn(-c3nc4ccccc4[nH]3)c(O)c2CCc2ccc(F)cc2)CC1` [Compound I-751, 1-(1H-1,3-benzodiazol-2-yl)-4-[2-(4-fluorophenyl)ethyl]-3-[1-(propane-2-sulfonyl)piperidin-4-yl]-1H-pyrazol-5-ol], in data set [1] (setting [4]), the inhibition at 1 µM turned out to be 22.3%. Also, the “Percent Viability @ 1 μM (TZM-bl cells)” value in data set [2] (human, 1 μM) stood at 101.1%. For the same compound, the pKd in data set [3] is 6.25.
`O=S(=O)(C1CCCC1)N1CCC(c2nn(-c3nc4ccccc4[nH]3)c(O)c2CCc2ccc(F)cc2)CC1` [Compound I-753, 1-(1H-1,3-benzodiazol-2-yl)-3-[1-(cyclopentanesulfonyl)piperidin-4-yl]-4-[2-(4-fluorophenyl)ethyl]-1H-pyrazol-5-ol]: the inhibition at 1 µM in data set [1] (setting [4]) was 76.5%. Also, the “Percent Viability @ 1 μM (TZM-bl cells)” value in data set [2] (human, 1 μM) is on record as 95.8%. Also, the pKd in data set [3] is 7.69.
As to `CC(=O)N1CCCC(c2nn(-c3nc4ccccc4[nH]3)c(O)c2CCc2ccc(F)cc2)C1` (centres unmarked) [Compound I-754, 1-{3-[1-(1H-1,3-benzodiazol-2-yl)-4-[2-(4-fluorophenyl)ethyl]-5-hydroxy-1H-pyrazol-3-yl]piperidin-1-yl}ethan-1-one], the inhibition at 1 µM in data set [1] (setting [6]) and in data set [1] (setting [4]) was 37.4% each time. Further, the “% Cell Viability” value in data set [2] (human, 1 μM) is on record as 97.2%. Also, the “Percent Viability @ 1 μM (TZM-bl cells)” value in data set [2] (human, 1 μM) is listed as 97.2%. In addition, the pKd in data set [3] is 6.32; in data set [3] (setting [7]) it was 10.63; in data set [3] (setting [8]) it was 10.63; in data set [3] (setting [9]), 5.14. Further, in data set [3] (Table 4), the “T, minutes (residence time)” value worked out at 8.05E + 05 minutes. In addition, the “RU30/RUNef (extent of binding)” value in data set [3] is reported as 5.14E- 03.
Consider `O=C(c1cnccn1)N1CCCC(c2nn(-c3nc4ccccc4[nH]3)c(O)c2CCc2ccc(F)cc2)C1` (centres unmarked) [Compound I-756, 1-(1H-1,3-benzodiazol-2-yl)-4-[2-(4-fluorophenyl)ethyl]-3-[1-(pyrazine-2-carbonyl)piperidin-3-yl]-1H-pyrazol-5-ol], for which, in data set [1] (setting [4]), the inhibition at 1 µM is 34.3%. The “Percent Viability @ 1 μM (TZM-bl cells)” value in data set [2] (human, 1 μM) was found to be 101.9%. In addition, the “Nef NL4-3 Binding” value in data set [3] (setting [5]) is listed as “No Interaction”.
Take `O=C(Cc1ccncc1)N1CCCC(c2nn(-c3nc4ccccc4[nH]3)c(O)c2CCc2ccc(F)cc2)C1` (centres unmarked) [Compound I-757, 1-{3-[1-(1H-1,3-benzodiazol-2-yl)-4-[2-(4-fluorophenyl)ethyl]-5-hydroxy-1H-pyrazol-3-yl]piperidin-1-yl}-2-(pyridin-4-yl)ethan-1-one]: the inhibition at 1 µM in data set [1] (setting [4]) was 17.2%. In addition, the “Percent Viability @ 1 μM (TZM-bl cells)” value in data set [2] (human, 1 μM) is 102.8%. The pKd in data set [3] is 5.62.
